Source: the supplement of paper PMC10307832

Experiments:
Experiment in all cases: relative viability (nuclei count vs DMSO), 5 days (fraction); higher = more cells survive
[1] = compound: CC1=CC(=NN1)NC2=CC(=NC(=N2)/C=C/C3=CC=CC=C3)N4CCN(CC4)C
How it was run: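 Hoechst staining, done together with fixation and permeabilisation, marked nuclei for 4× imaging and MetaXpress counting. This followed 5 days without medium change after lung cancer cell lines, kept overnight at 37 °C in 1536-well plates, were pinned with five library-drug doses (not always all listed) spaced by √10 on vehicle-anchored plates. Viability is the ratio of treated-well to vehicle-well nuclei, expressed as a median across plates. Plates passed only at control CV below 25% with at least one doubling.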

Bortezomib + Dasatinib = compound: CC(C)C[C@H](NC(=O)[C@H](Cc1ccccc1)NC(=O)c1cnccn1)B(O)O [Bortezomib] + Cc1nc(Nc2ncc(C(=O)Nc3c(C)cccc3Cl)s2)cc(N2CCN(CCO)CC2)n1 [Dasatinib] (partner 0.075 µM)
How it was run: (§1)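 Nuclei were stained with Hoechst during a one-step fixation (final 0.05% Triton X-100, 1% formaldehyde, 1 ug/ml Hoechst) carried out 5 days after dosing, then counted on 4× images. The cells, lung cancer lines in 1536-well plates, had been dosed by pin tool the day after seeding with one drug alone or a fixed anchor-drug dose plus five library-drug doses (not always all listed) in √10 steps. Relative viability is the nuclei count in treated wells divided by that in vehicle wells, and each value is the median of duplicate plates.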

[2] = compound: CC1=CC(=NN1)NC2=CC(=NC(=N2)/C=C/C3=CC=CC=C3)N4CCN(CC4)C + CC(=O)c1c(C)c2cnc(Nc3ccc(N4CCNCC4)cn3)nc2n(C2CCCC2)c1=O [Palbociclib] (partner 0.5 µM)
How it was run: as §1

[3] = compound: CC1=CC(=NN1)NC2=CC(=NC(=N2)/C=C/C3=CC=CC=C3)N4CCN(CC4)C + Nc1nc2[nH]cc(CCc3ccc(C(=O)N[C@@H](CCC(=O)O)C(=O)O)cc3)c2c(=O)[nH]1 [Pemetrexed] (partner 0.2 µM)
How it was run: as §1

Cell Line	relative viability ([1]; 0.08 µM)	relative viability ([1]; 0.253 µM)	relative viability ([1]; 0.8 µM)	relative viability ([1]; 2.53 µM)	relative viability ([1]; 8 µM)	relative viability (Bortezomib + Dasatinib; first compound 0.0002 µM)	relative viability (Bortezomib + Dasatinib; first compound 0.000632 µM)	relative viability (Bortezomib + Dasatinib; first compound 0.002 µM)	relative viability (Bortezomib + Dasatinib; first compound 0.006325 µM)	relative viability (Bortezomib + Dasatinib; first compound 0.02 µM)	relative viability ([2]; first compound 0.08 µM)	relative viability ([2]; first compound 0.253 µM)	relative viability ([2]; first compound 0.8 µM)	relative viability ([2]; first compound 2.53 µM)	relative viability ([2]; first compound 8 µM)	relative viability ([3]; first compound 0.08 µM)	relative viability ([3]; first compound 0.253 µM)	relative viability ([3]; first compound 0.8 µM)	relative viability ([3]; first compound 2.53 µM)	relative viability ([3]; first compound 8 µM)
201T	1.02	1.06	0.928	0.892	0.354	0.571	0.607	0.536	0.589	0.283	0.345	0.358	0.359	0.33	0.197	0.31	0.318	0.376	0.327	0.298
A549	0.909	1.04	0.92	0.29	0.0371															
A-427	1.05	0.908	0.942	0.286	0.172	0.611	0.746	0.716	0.408	0.104	0.58	0.518	0.51	0.454	0.201	1.06	1.1	0.97	0.51	0.202
ABC-1	0.835	0.888	1.16	0.341	0.227	0.6	0.317	0.243	0.224	0.233	0.668	0.633	0.934	0.636	0.227					
BEN	0.921	0.974	0.998	0.618	0.224	0.262	0.408	0.343	0.246	0.249	0.421	0.459	0.511	0.437	0.328	0.723	0.809	0.699	0.476	0.323
CAL-12T	0.977	0.946	0.928	0.339	0.187	0.538	0.347	0.53	0.119	0.0844	0.412	0.335	0.466	0.185	0.119	1.09	1.25	1.16	0.56	0.159
COR-L23	1.03	1.1	0.976	0.237	0.116	0.461	0.459	0.485	0.045	0.054	0.315	0.33	0.24	0.127	0.0777	0.202	0.203	0.179	0.166	0.105
COR-L 105	0.848	1	0.891	0.301	0.27	0.381	0.324	0.352	0.267	0.216	0.432	0.381	0.406	0.275	0.323	1.23	1.13	0.945	0.351	0.29
Calu-6	0.967	0.991	0.889	0.236	0.141															
ChaGo-K-1	0.953	1.01	0.976	0.647	0.289	0.535	0.539	0.558	0.207	0.13	0.756	0.952	0.933	0.378	0.17	0.259	0.264	0.27	0.227	0.17
EBC-1	0.945	0.966	0.953	0.475	0.178															
EKVX	0.9	1.05	1.09	0.844	0.267	0.544	0.526	0.707	0.397	0.185	0.414	0.465	0.362	0.301	0.144	0.366	0.5	0.674	0.361	0.197
EMC-BAC-2	0.939	1.03	0.886	0.477	0.246	0.313	0.318	0.494	0.157	0.188	0.519	0.543	0.504	0.454	0.273	0.439	0.495	0.445	0.465	0.234
EPLC-272H	0.819	1.09	0.908	0.404	0.35	0.342	0.192	0.277	0.0803	0.0618	0.299	0.342	0.319	0.291	0.204	0.329	0.363	0.342	0.104	0.136
H3255	0.966	1.05	1.04	0.931	0.473	0.332	0.271	0.299	0.37	0.28	0.322	0.319	0.345	0.313	0.267	0.526	0.589	0.573	0.555	0.391
HARA	0.908	0.951	1.25	0.339	0.217	0.206	0.239	0.259	0.105	0.0621	0.296	0.31	0.266	0.174	0.103	0.234	0.252	0.252	0.165	0.175
HCC-15	1.01	1	1.01	0.524	0.1	0.514	0.629	0.649	0.0786	0.0817	0.743	0.771	0.716	0.347	0.114	0.244	0.22	0.225	0.192	0.113
HCC-44	0.986	1.01	0.933	0.86	0.18						0.984	0.946	0.952	1.01	0.644	0.642	0.644	0.631	0.622	0.557
